Our source for the GI50 and TGI values is PubChem BioAssay (NCI).

Test systems include A498 renal; A549 NSCLC; HCT-116 colon; HOP-62 NSCLC; MALME-3M melanoma; MDA-MB-435; MOLT-4 leukemia; SN12C renal; T-47D breast; U251 CNS.
Holding throughout (assay): NCI-60 cell line screen, 48 h

Several values for one entry are separate records, joined by “and”; a condition that tells them apart may be missing. Identical values can stand only once.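 48-hour exposure; five concentrations; linearly interpolated endpoints. GI50 is the concentration that inhibits growth by half. At the TGI there is no net growth.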 A value given as a limit tells only on which side of the number the result lay.

Take `COc1cc(OC)c(/C=C/S(=O)(=O)Cc2ccc(OC)c(NCC(=O)O)c2)c(OC)c1`: the GI50 in the assay on A498 renal is 66.8 nM and 44.8 nM; in the assay on A549 NSCLC, 229 nM and 75.5 nM; with HCT-116 colon it was 119 nM and 93.4 nM; in the assay with HOP-62 NSCLC, 0.291 µM and 0.0874 µM; with MDA-MB-435, 31.2 nM and 28.3 nM; in the assay with MOLT-4 leukemia, 0.408 µM and 0.466 µM. Besides, the GI50 is 0.207 µM and 0.251 µM in the assay with SN12C renal; more than 100 µM with T-47D breast; 193 nM and 47.7 nM in the assay on U251 CNS. Further, the TGI in the assay with A549 NSCLC is more than 100 µM; in the assay with HCT-116 colon, more than 10 µM; in the assay on HOP-62 NSCLC it was more than 100 µM; in the assay with MALME-3M melanoma, more than 100 µM; in the assay on MDA-MB-435, 0.115 µM and 0.111 µM; in the assay with MOLT-4 leukemia, more than 100 µM. The TGI in the assay with SN12C renal, in the assay with T-47D breast and in the assay on U251 CNS was more than 100 µM in each case.

With `C[C@H](NC(=O)CCC(F)(F)F)C(=O)N[C@@H]1C(=O)N(CCO)c2ncccc2-c2ccccc21`, the GI50 with A498 renal is more than 100000 nM; in the assay on A549 NSCLC, more than 100000 nM; in the assay on HCT-116 colon, more than 100000 nM; in the assay on HOP-62 NSCLC, more than 100 µM; in the assay on MALME-3M melanoma, more than 100000 nM; in the assay with MDA-MB-435, more than 100000 nM. For the same compound, the GI50 is more than 100 µM with MOLT-4 leukemia, more than 100 µM with SN12C renal, more than 100 µM in the assay with T-47D breast and more than 100000 nM with U251 CNS. The TGI with A498 renal, in the assay with A549 NSCLC, in the assay with HCT-116 colon, in the assay on HOP-62 NSCLC, in the assay with MALME-3M melanoma and with MDA-MB-435 was more than 100 µM throughout. For the same compound, the TGI in the assay with MOLT-4 leukemia, with SN12C renal, in the assay on T-47D breast and in the assay with U251 CNS was more than 100 µM each time.

Take `CC(C)C[C@H](NC(=O)[C@@H](O)[C@H](N)Cc1ccccc1)C(=O)O`: in the assay on A498 renal, the GI50 was more than 100000 nM. Also, the TGI in the assay with A498 renal, with A549 NSCLC, in the assay on HCT-116 colon, in the assay with HOP-62 NSCLC, in the assay on MALME-3M melanoma and in the assay on MDA-MB-435 was more than 100 µM throughout. Besides, the TGI in the assay on MOLT-4 leukemia, with SN12C renal, in the assay with T-47D breast and with U251 CNS was more than 100 µM each time.

Regarding `Nc1ncnc2c1ncn2Cc1ccc(C23CC4CC(CC(C4)C2)C3)c(O)c1`, the GI50 with A498 renal is 15800 nM; with A549 NSCLC, 6520 nM; in the assay on HCT-116 colon, 8910 nM; with HOP-62 NSCLC it was 9.06 µM; in the assay on MALME-3M melanoma it was 12600 nM; in the assay on MDA-MB-435, 15000 nM. In addition, the GI50 was 6.72 µM in the assay on MOLT-4 leukemia, 36.9 µM in the assay with SN12C renal, 58.7 µM in the assay on T-47D breast and 14800 nM with U251 CNS. Also, the TGI in the assay on A498 renal is 49.8 µM; in the assay on A549 NSCLC it was 77.4 µM; with HCT-116 colon, more than 100 µM; with HOP-62 NSCLC, 34.6 µM; in the assay on MALME-3M melanoma, more than 100 µM; with MDA-MB-435 it was more than 100 µM. In addition, the TGI in the assay on MOLT-4 leukemia is more than 100 µM; in the assay with SN12C renal, more than 100 µM; in the assay with T-47D breast it was more than 100 µM; in the assay on U251 CNS it was 32.6 µM.

As for `Nc1ccc2c(c1)CN1C(=O)c3ccccc3C1=N2`, the TGI in the assay with A498 renal was 104 µM; with A549 NSCLC, more than 125 µM; in the assay with HCT-116 colon, more than 125 µM; with HOP-62 NSCLC, 23.8 µM; in the assay with MALME-3M melanoma, more than 125 µM; with MDA-MB-435 it was more than 125 µM. Besides, the TGI was 96.5 µM and 58.2 µM in the assay with MOLT-4 leukemia; more than 125 µM in the assay on SN12C renal; more than 125 µM with T-47D breast; 121 µM in the assay with U251 CNS. The GI50 is 29700 nM with HCT-116 colon; 45.7 µM in the assay with HOP-62 NSCLC; 19.2 µM in the assay on MOLT-4 leukemia; 44.8 µM with SN12C renal; 35700 nM in the assay with U251 CNS.

For `CCN(CC)CCOc1ccc(C2=C(c3ccccc3)CCc3cc(OC)ccc32)cc1`, the GI50 was 4230 nM in the assay with A498 renal; 4020 nM in the assay on A549 NSCLC; 1550 nM in the assay with HCT-116 colon; 3.08 µM in the assay with HOP-62 NSCLC; 1690 nM with MALME-3M melanoma; 1480 nM in the assay with MDA-MB-435. Further, the GI50 in the assay on MOLT-4 leukemia was 4.64 µM; in the assay with SN12C renal, 5.48 µM; in the assay on T-47D breast, 0.811 µM; in the assay with U251 CNS, 2290 nM. Besides, the TGI came out at 9.44 µM in the assay with A498 renal; 16.2 µM in the assay on A549 NSCLC; 4.19 µM with HCT-116 colon; 9.6 µM in the assay on HOP-62 NSCLC; 3.41 µM with MALME-3M melanoma; 3.4 µM with MDA-MB-435. The TGI in the assay with MOLT-4 leukemia was 21.3 µM; in the assay on SN12C renal, 20 µM; in the assay on T-47D breast it was 6.86 µM; in the assay with U251 CNS, 7.07 µM.

As to `O=C(Cc1nc2ccc([N+](=O)[O-])cc2[nH]c1=O)C(=O)Nc1cc(Cl)c(Cl)cc1Cl`, the TGI in the assay with A498 renal, with A549 NSCLC, in the assay with HCT-116 colon, in the assay on HOP-62 NSCLC, in the assay with MALME-3M melanoma and in the assay with MDA-MB-435 was more than 100 µM in each case. In addition, the TGI with MOLT-4 leukemia, in the assay on SN12C renal, in the assay on T-47D breast and with U251 CNS was more than 100 µM throughout.

As for `CC(C)(C)c1ccc(S(=O)(=O)N[C@H]2CC[C@H]3[C@@H]4CCc5cc(O)ccc5[C@H]4CC[C@]23C)cc1`, the GI50 in the assay on A498 renal was 1310 nM; in the assay on A549 NSCLC it was 2140 nM; in the assay on HCT-116 colon, 1630 nM; with HOP-62 NSCLC, 2.07 µM; with MALME-3M melanoma, 2780 nM; in the assay with MDA-MB-435, 1790 nM. The GI50 with MOLT-4 leukemia is 2.46 µM; with SN12C renal it was 1.76 µM; in the assay on T-47D breast, 2.59 µM; in the assay with U251 CNS, 1890 nM. In addition, the TGI in the assay with A498 renal came out at 2.72 µM; with A549 NSCLC it was 7.24 µM; with HCT-116 colon, 2.98 µM; in the assay on HOP-62 NSCLC, 3.98 µM; in the assay with MALME-3M melanoma, 7.13 µM; with MDA-MB-435, 3.33 µM. For the same compound, the TGI in the assay with MOLT-4 leukemia was determined as 9.53 µM; in the assay on SN12C renal, 3.55 µM; in the assay with T-47D breast, 8.76 µM; with U251 CNS, 4.45 µM.
